Reference: patent publication US11266670B2, “Use of scutellarin in a medicament and a modulator for preventing or treating diseases, medicament, and modulator” (University of Macau, priority 2019, dated 2022)
Starred links: 1 amine or outer side, 2 acyl side, 3 side chain; linkers in the order of their positions; H or OH if unused. Positions of bridges follow the written chain, without caps; N, C: chain ends. Non-standard residues stand in square brackets, D forms with d. Residues, ends and D or L forms follow the SMILES beside them. Chains are numbered I, II in the order given. Actinocin(9to1) = Cc1c2oc3c(C)ccc(C(=O)[*:1])c3nc-2c(C(=O)[*:2])c(N)c1=O; NMeV = CN[C@H](C(=O)O)C(C)C; Sar = CNCC(=O)O

Tests used:
Tregs = assay: TNF-induced up-regulation of Tregs and Foxp3/TNFR2 expression in cultured lymphocytes (FACS); assay type: cell-based; details: in vitro
Method: FIG. 5. […] Lymphocytes were cultured in the presence of IL-2 (10 ng/mL) or IL-2+TNF (10 ng/mL each), with medium alone or with scutellarin (25-50 μM) for 72 hours. (A) Typical FACS analysis of Tregs is shown. The data as shown are representative of at least three separate experiments with similar results. The numbers in the FACS plots show the proportion of cells in the respective quadrants. (B) Summary of the proportion of CD4^+Foxp3^+ cells in CD4^+ cells. (C) Summary of MFI of Foxp3 expression on Tregs. (D) Typical FACS plots of the proportion of TNFR2^+ cells in Tregs. (E) Summary of the proportion of TNFR2^+ cells in CD4^+Foxp3^+Tregs. (F) Summary of MFI of TNFR2 expression on Tregs (by gating on Foxp3^+ cells) (N=3, mean±SEM). ** p<0.01, *** p<0.001, compared to the “TNF+IL-2” group. The data as shown are representative of at least three separate experiments with similar results.
We then explored the effect of scutellarin on the TNF-induced proliferation of Tregs in an in vitro experiment. […]
Lymphocytes were obtained from spleens, axillary lymph nodes, inguinal lymph nodes and mesenteric lymph nodes of mice. […] The proliferation of Tregs was assessed by CFSE dilution assay, and the proportion of Foxp3^+ cells in the CD4^+ subset and the proportion of TNFR2 expressed on Tregs were analyzed by FACS. […] The expression of Foxp3 and TNFR2 was analyzed by FACS. […]

WEHI-13VAR cells = assay: TNF bioassay: TNF-induced death of WEHI-13VAR cells in the presence of AcD (MTT); assay type: cell-based
Method: WEHI-13VAR is a fibrosarcoma cell line that is extremely sensitive to TNF-induced cell death in the presence of AcD (0.5 μg/ml) and is commonly used in TNF bioassays. In TNF bioassays, the presence of AcD is a standard approach designed to increase the sensitivity of cells to TNF. TNF acts by binding to its two functionally distinct receptors, TNFR1 and TNFR2. To identify which TNF receptor was expressed on WEHI-13VAR cells, we measured the expression of TNFR1 and TNFR2 on WEHI-13VAR by FACS. […] In the case of labeling with PE anti-mouse TNFR2 antibody, the expression of TNFR2 was higher than in the case of labeling with the isotype control by 50%. […] Furthermore, in order to investigate which TNF receptor is responsible for TNF-induced cell death, we stimulated the cells with TNF, and co-cultured the cells with anti-TNFR1 antibody or anti-TNFR2 antibody for 24 hours. Cell viability was measured by MTT. […]
CHIs are injections developed in China and approved by the China Food and Drug Administration. […] We screened eleven CHIs and assessed their effects on WEHI-13VAR cells by TNF bioassay. […]
WEHI-13VAR cells were seeded in 96-well plates at 1.5×10^4 cells/well. […] Absorbance values were read at 570 nm using a 1420 Multilabel counter victor (PerkinElmer, Waltham, Mass., USA). Cell viability was expressed as the ratio of absorbance values between the sample and the blank control group.

Structure (SMILES)	50% lethal dose of scutellarin (Tregs)	cytotoxicity against WEHI-13VAR cells (WEHI-13VAR cells; scutellarin 12.5-200 μM)	death of WEHI-13VAR cells induced by AcD (WEHI-13VAR cells; AcD 0.5 μg/ml alone)
O=C(O)[C@H]1O[C@@H](Oc2cc3oc(-c4ccc(O)cc4)cc(=O)c3c(O)c2O)[C@H](O)[C@@H](O)[C@@H]1O [scutellarin]	higher than 100 μM	no significant cytotoxicity against WEHI-13VAR cells	
Cc1c2oc3c(C)ccc(C(=O)N[C@@H]4C(=O)N[C@H](C(C)C)C(=O)N5CCC[C@H]5C(=O)N(C)CC(=O)N(C)[C@@H](C(C)C)C(=O)O[C@@H]4C)c3nc-2c(C(=O)N[C@@H]2C(=O)N[C@H](C(C)C)C(=O)N3CCC[C@H]3C(=O)N(C)CC(=O)N(C)[C@@H](C(C)C)C(=O)O[C@@H]2C)c(N)c1=O [AcD, actinomycin D, reference compound] (I: T[dV]P[Sar][NMeV] / II: T[dV]P[Sar][NMeV]; ester I:1-I:C, II:1-II:C; linker I:N-II:N via Actinocin(9to1))			approximately 30%
